Assays:
[1] = Intratumoral concentration of STING agonist in B16-F10 melanoma tumors; type: in vivo, C57BL/6 mice; settings: 0.3 μg of CL656 intratumoral dose; after about 360 minutes
Method: The intratumoral concentration of STING agonist in Buffer B over time was investigated.
Briefly, B16-F10 melanoma cells were subcutaneously transplanted into C57BL/6 mice. When dermal tumors were visible, each animal received an intratumoral dose of either free STING agonist (0.3 μg of CL656) or exosome-encapsulated STING agonist (0.3 μg of CL656). Intratumoral concentration of free STING agonist and exosome-encapsulated STING agonist was measured at 5, 30, 120, 360, 1440, and 2880 minutes after injection. […] Further shown in FIG. 3D, the concentration of exosome-encapsulated STING agonist fell slowly to about 100 nM at 1440 minutes. Thereafter, the concentration of exosome-encapsulated STING agonist was steady at about 100 nM until the last measurement was taken at 2880 minutes.

[2] = system: IFNβ mRNA; test: IFNβ mRNA expression in liver after intravenous administration; type: in vivo, C57BL/6 mice; settings: 20 μg intravenously; 4 hours
Method: The effect of administration of exosomes containing STING agonist CL656 on gene expression in C57BL/6 liver was investigated.
After thawing, exosomes in buffer B composition containing STING agonist CL656 was stored at 4° C. and 22° C. for 24 h or 72 h as described in Example 5. PBS, CL656 (20 μg), exosomes, or exosomes in buffer B containing STING agonist CL656 that incubated as described above (600 ng of CL656 per mouse) were administered into C57BL/6 mice intravenously. As a control, exosomes in buffer B composition containing STING agonist CL656 that were stored at −80° C. (6 ng, 60 ng, and 600 ng per mouse) were administered (considered as 0 h). After 4 hours, mice were euthanized and liver was collected. Total RNA was isolated from liver by using RNeasy Lipid Mini Kit (Qiagen) and expression level of IFNβ mRNA was determined by RT-qPCR. Relative expression was normalized against housekeeping gene RPS13. FIG. 3C provides the results from the liver study.

With `Nc1ncnc2c1ncn2[C@@H]1O[C@@H]2COP(=O)(S)O[C@H]3[C@@H](F)[C@H](n4cnc5c(=O)[nH]cnc54)O[C@@H]3COP(O)(=S)O[C@H]2[C@H]1F` (some centres unmarked) [CL656] the intratumoral concentration [1] was “not detectable” and the “IFNβ mRNA in liver (RT-qPCR, normalized against RPS13)” value [2] was “low level”.

Reference: patent US20240099973A1, “EXTRACELLULAR VESICLE COMPOSITIONS” (LONZA SALES AG, priority 2019, published 2024)
